Where a name gives a salt, the structure may show the parent alone. Read-outs that look alike come from different tables or passages of the source.
Assays:
[1] = biological target: T1, PKCa (Homo sapiens, UniProt P17252); experiment: PKCa protein kinase assay; format: biochemical; settings: for remaining activity at 10 µM: 10 μM compound; for residual kinase activity PKCa: 1 μm compound; for remaining activity at 1 µM: 1 μM compound
T1 construct: All protein kinases were of human origin and encoded full length proteins, unless indicated otherwise; made in house
Description: (§1) All protein kinases were of human origin and encoded full length proteins, unless indicated otherwise. They were either expressed as glutathione S-transferase (GST) fusion proteins in Escherichia Coli or as hexahistidine (His6)-tagged proteins in insect Sf21 cells. GST fusion proteins were purified by affinity chromatography on glutathione-Sepharose, and His6-tagged proteins on nickel/nitriloacetate-agarose. The procedures for expressing some of the protein kinases used herein have been detailed previously.^8,9 The following sections outline the DNA vectors synthesised and the procedures used to express and purifying protein kinases that have not been reported previously.
(§2) All assays (25.5 μl) were carried out at room temperature (21° C.) and were linear with respect to time and enzyme concentration under the conditions used. Assays were performed for 30 min using Multidrop Micro reagent dispensers (Thermo Electron Corporation, Waltham, Mass. 02454, USA) in a 96-well format. The concentration of magnesium acetate in the assays was 10 mM and the [γ-33P] ATP (800 cpm/pmol) was used at 5, 20 or 50 μM as indicated, in order to be at or below the Km for ATP for each enzyme. Protein kinases assayed at 5 μM ATP were: —ERK1, ERK8, PKBα, MARK3, Aurora C. Protein kinases assayed at 20 μM ATP were: —JNK1, PDK1, CHK1, CHK2, CDK2 and Aurora B. Protein kinases assayed at 50 μM ATP were: —MNK2, IKKepsilon and TBK1.
(§3) The assays were initiated with MgATP, stopped by addition of 5 μl of 0.5 M orthophosphoric acid and spotted on to P81 filterplates using a unifilter harvester (PerkinElmer, Boston, Mass. 02118, USA). The IC50 values of inhibitors were determined after carrying out assays at 10 different concentrations of each compound.
(§4) Unless stated otherwise, enzymes were diluted in 50 mM Tris/HCl pH 7.5, 0.1 mM EGTA, 1 mg/ml BSA, 0.1% (v/v) 2-mercaptoethanol and assayed in 50 mM Tris/HCl pH 7.5, 0.1 mM EGTA, 0.1% (v/v) 2-mercaptoethanol.

[2] = biological target: T2, PIM2 (Homo sapiens, UniProt Q9P1W9); experiment: PIM2 protein kinase assay; format: biochemical; settings: for remaining activity at 10 µM: 10 μM compound; for residual kinase activity PIM2: 1 μm compound; for remaining activity at 1 µM: 1 μM compound
T2 construct: All protein kinases were of human origin and encoded full length proteins, unless indicated otherwise; made in house
Description: as §1, §2, §3, §4

[3] = system: ROCK 2; experiment: ROCK 2 protein kinase assay; format: biochemical, human; settings: for residual kinase activity: ROCK 2
Description: as §1, §2, §3, §4

[4] = biological target: T3, Lck (Homo sapiens, UniProt P06239); experiment: Lck protein kinase assay; format: biochemical; settings: for remaining activity at 10 µM: 10 μM compound; for residual kinase activity Lck: 1 μm compound; for remaining activity at 1 µM: 1 μM compound
T3 construct: All protein kinases were of human origin and encoded full length proteins, unless indicated otherwise; made in house
Description: as §1, §2, §3, §4

[5] = biological target: T4, PRAK (Homo sapiens, UniProt Q8IW41); experiment: PRAK protein kinase assay; format: biochemical; settings: for remaining activity at 10 µM: 10 μM compound; for residual kinase activity PRAK: 1 μm compound; for remaining activity at 1 µM: 1 μM compound
T4 construct: All protein kinases were of human origin and encoded full length proteins, unless indicated otherwise; made in house
T4 sequence (Q8IW41 1-473): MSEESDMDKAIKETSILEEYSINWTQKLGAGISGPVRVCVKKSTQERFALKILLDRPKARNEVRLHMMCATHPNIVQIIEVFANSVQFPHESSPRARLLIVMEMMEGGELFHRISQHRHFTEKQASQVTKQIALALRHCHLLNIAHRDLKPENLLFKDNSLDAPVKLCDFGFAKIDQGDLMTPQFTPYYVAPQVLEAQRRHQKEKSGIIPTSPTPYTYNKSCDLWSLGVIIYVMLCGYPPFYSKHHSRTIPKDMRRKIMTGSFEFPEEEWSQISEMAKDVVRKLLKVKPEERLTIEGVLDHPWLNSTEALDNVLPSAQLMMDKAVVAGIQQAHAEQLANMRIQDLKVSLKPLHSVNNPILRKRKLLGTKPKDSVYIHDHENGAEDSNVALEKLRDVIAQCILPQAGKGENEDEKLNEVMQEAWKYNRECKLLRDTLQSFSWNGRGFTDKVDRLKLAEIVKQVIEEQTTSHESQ
Description: as §1, §2, §3, §4

[6] = biological target: T5, RSK1 (Homo sapiens, UniProt Q15418); experiment: RSK1 protein kinase assay; format: biochemical; settings: for remaining activity at 10 µM: 10 μM compound; for residual kinase activity RSK1: 1 μm compound; for remaining activity at 1 µM: 1 μM compound
T5 construct: All protein kinases were of human origin and encoded full length proteins, unless indicated otherwise; made in house
Description: as §1, §2, §3, §4

[7] = biological target: T6, YES1 (Homo sapiens, UniProt P07947); experiment: YES1 protein kinase assay; format: biochemical; settings: for remaining activity at 10 µM: 10 μM compound; for residual kinase activity YES1: 1 μm compound; for remaining activity at 1 µM: 1 μM compound
T6 construct: All protein kinases were of human origin and encoded full length proteins, unless indicated otherwise; made in house
Description: as §1, §2, §3, §4

[8] = biological target: T7, PKC zeta (Homo sapiens, UniProt Q05513); experiment: PKC zeta protein kinase assay; format: biochemical; settings: for remaining activity at 10 µM: 10 μM compound; for residual kinase activity PKC zeta: 1 μm compound; for remaining activity at 1 µM: 1 μM compound
T7 construct: All protein kinases were of human origin and encoded full length proteins, unless indicated otherwise; made in house
T7 sequence (Q05513 1-592): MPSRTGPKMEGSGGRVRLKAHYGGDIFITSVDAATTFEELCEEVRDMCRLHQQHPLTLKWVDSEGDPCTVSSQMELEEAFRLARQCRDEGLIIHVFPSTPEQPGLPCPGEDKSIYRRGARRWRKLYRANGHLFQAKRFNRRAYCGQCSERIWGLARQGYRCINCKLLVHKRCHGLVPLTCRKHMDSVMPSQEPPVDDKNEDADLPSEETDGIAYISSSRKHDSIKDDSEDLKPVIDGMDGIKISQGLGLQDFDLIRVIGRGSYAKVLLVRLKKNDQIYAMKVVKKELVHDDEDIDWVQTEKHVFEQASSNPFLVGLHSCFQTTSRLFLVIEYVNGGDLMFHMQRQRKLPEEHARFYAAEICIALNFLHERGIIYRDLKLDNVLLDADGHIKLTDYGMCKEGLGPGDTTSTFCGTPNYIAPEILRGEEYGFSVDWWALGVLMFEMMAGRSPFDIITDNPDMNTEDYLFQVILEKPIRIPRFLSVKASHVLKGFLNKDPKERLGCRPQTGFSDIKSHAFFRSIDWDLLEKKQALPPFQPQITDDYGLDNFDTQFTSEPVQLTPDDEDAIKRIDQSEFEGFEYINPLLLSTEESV
Description: as §1, §2, §3, §4

[9] = biological target: T8, CSK (Homo sapiens, UniProt P41240); experiment: CSK protein kinase assay; format: biochemical; settings: for remaining activity at 10 µM: 10 μM compound; for residual kinase activity CSK: 1 μm compound; for remaining activity at 1 µM: 1 μM compound
T8 construct: All protein kinases were of human origin and encoded full length proteins, unless indicated otherwise; made in house
Description: as §1, §2, §3, §4

[10] = read-out: residual kinase activity PKCa
[11] = read-out: residual kinase activity PIM2
[12] = read-out: residual kinase activity Lck
[13] = read-out: residual kinase activity PRAK
[14] = read-out: residual kinase activity RSK1
[15] = read-out: residual kinase activity YES1
[16] = read-out: residual kinase activity PKC zeta
[17] = read-out: residual kinase activity CSK
[18] = PKCa, read-out: residual kinase activity
[19] = PIM2, read-out: residual kinase activity
[20] = Lck, read-out: residual kinase activity
[21] = PRAK, read-out: residual kinase activity
[22] = RSK1, read-out: residual kinase activity
[23] = YES1, read-out: residual kinase activity
[24] = PKC zeta, read-out: residual kinase activity
[25] = CSK, read-out: residual kinase activity

T2 sequence (Q9P1W9 whole entry): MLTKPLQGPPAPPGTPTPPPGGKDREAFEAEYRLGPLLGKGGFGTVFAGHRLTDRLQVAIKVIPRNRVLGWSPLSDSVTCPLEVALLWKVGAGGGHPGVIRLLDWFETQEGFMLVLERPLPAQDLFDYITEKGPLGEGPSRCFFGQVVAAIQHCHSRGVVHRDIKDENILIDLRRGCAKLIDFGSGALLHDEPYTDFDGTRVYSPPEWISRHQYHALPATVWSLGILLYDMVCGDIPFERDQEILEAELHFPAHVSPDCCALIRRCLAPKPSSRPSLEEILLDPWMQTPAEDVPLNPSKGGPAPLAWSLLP
T8 sequence (P41240 whole entry): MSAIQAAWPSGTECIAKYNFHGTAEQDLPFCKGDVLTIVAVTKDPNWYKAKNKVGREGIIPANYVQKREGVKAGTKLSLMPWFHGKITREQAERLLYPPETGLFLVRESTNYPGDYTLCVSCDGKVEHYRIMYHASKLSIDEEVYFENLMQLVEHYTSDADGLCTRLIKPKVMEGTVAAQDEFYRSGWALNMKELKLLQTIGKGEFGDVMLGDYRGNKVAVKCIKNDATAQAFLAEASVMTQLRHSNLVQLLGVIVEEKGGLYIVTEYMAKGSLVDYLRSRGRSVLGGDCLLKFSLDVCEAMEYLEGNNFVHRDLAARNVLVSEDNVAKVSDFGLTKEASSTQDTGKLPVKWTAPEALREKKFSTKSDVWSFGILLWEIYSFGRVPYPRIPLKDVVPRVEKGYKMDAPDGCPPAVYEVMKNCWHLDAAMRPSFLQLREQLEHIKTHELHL
T5 sequence (Q15418 whole entry): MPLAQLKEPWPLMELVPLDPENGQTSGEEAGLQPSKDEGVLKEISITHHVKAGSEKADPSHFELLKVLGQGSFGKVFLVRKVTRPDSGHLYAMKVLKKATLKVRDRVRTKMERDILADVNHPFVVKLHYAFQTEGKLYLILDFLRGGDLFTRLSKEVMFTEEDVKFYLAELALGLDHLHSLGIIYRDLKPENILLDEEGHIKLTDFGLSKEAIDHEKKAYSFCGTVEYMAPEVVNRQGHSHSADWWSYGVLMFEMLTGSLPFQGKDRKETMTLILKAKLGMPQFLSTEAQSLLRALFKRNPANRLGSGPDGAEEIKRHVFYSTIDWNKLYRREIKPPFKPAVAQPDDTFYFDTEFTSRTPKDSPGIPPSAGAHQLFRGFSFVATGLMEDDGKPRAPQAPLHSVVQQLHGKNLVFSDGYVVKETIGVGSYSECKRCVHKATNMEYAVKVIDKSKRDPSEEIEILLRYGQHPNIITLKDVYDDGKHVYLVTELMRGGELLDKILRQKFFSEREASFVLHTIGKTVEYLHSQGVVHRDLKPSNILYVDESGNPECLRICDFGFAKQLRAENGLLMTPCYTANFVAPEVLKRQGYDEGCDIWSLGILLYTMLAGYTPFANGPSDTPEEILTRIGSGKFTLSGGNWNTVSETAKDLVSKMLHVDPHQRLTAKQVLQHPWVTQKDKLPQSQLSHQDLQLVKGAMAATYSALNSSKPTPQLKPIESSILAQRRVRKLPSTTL
T3 sequence (P06239 whole entry): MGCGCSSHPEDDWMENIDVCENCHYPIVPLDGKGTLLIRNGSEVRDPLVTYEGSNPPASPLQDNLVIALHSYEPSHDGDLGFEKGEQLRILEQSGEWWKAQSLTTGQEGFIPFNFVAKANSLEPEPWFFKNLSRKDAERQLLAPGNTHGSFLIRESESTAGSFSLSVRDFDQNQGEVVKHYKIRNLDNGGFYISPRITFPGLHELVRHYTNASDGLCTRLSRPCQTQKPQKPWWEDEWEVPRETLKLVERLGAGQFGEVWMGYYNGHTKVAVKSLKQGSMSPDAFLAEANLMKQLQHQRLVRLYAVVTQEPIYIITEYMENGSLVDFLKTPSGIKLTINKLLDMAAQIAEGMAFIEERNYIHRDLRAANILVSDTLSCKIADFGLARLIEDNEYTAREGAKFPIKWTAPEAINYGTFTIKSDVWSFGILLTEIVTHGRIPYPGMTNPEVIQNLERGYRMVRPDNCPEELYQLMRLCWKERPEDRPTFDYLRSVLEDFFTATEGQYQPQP
T6 sequence (P07947 whole entry): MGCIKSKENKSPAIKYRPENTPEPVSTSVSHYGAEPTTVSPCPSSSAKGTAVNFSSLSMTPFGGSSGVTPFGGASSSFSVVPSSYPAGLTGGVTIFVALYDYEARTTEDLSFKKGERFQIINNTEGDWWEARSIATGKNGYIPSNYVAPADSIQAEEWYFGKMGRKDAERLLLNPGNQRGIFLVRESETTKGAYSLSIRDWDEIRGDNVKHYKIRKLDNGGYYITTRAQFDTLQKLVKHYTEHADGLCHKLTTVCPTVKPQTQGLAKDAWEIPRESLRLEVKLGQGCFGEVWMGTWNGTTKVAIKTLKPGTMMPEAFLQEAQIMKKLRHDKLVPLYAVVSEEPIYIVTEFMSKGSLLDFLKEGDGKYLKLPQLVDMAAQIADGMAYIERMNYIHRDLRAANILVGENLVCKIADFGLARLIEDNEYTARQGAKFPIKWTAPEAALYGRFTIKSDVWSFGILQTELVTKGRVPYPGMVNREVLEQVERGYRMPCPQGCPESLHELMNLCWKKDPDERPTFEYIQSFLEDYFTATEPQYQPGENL

Row | SMILES | remaining activity at 10 µM [1, 10] [%] | residual kinase activity PKCa [1] [%] | remaining activity at 1 µM [1, 18] [%] | remaining activity at 10 µM [1, 18] [%] | remaining activity at 1 µM [2, 19] [%] | remaining activity at 10 µM [2, 19] [%] | residual kinase activity ([3]; 1 μM compound) [%] | residual kinase activity ([3]; 10 μM compound) [%] | remaining activity at 1 µM [4, 20] [%] | remaining activity at 10 µM [4, 20] [%] | remaining activity at 1 µM [5, 21] [%] | remaining activity at 10 µM [5, 21] [%] | remaining activity at 1 µM [6, 22] [%] | remaining activity at 10 µM [6, 22] [%] | remaining activity at 1 µM [7, 23] [%] | remaining activity at 10 µM [7, 23] [%] | remaining activity at 1 µM [8, 24] [%] | remaining activity at 10 µM [8, 24] [%] | remaining activity at 1 µM [9, 25] [%] | remaining activity at 10 µM [9, 25] [%] | further results
1 | O=C(NCCCNc1nc(Nc2cccc(F)c2)ncc1Br)C1CCC1 [Compound A, cyclobutanecarboxylic acid {3-[5-bromo-2-(3-fluoro-phenylamino)-pyrimidin-4-ylamino]-propyl}-amide, reference compound] | 49 | 94 | – | – | – | – | – | – | – | – | – | – | – | – | – | – | – | – | – | – | remaining activity at 10 µM [2, 11]: 75%; residual kinase activity PIM2 [2]: 90%; residual kinase activity ROCK 2 ([3]; 10 μM compound): 11%; residual kinase activity ROCK 2 ([3]; 1 μm compound): 33%; remaining activity at 10 µM [4, 12]: 10%; residual kinase activity Lck [4]: 57%; remaining activity at 10 µM [5, 13]: 31%; residual kinase activity PRAK [5]: 65%; remaining activity at 10 µM [6, 14]: 9%; residual kinase activity RSK1 [6]: 27%; remaining activity at 10 µM [7, 15]: 8%; residual kinase activity YES1 [7]: 36%; remaining activity at 10 µM [8, 16]: 42%; residual kinase activity PKC zeta [8]: 90%; remaining activity at 10 µM [9, 17]: 51%; residual kinase activity CSK [9]: 86%
2 | O=C(NCCCNc1nc(Nc2cccc(F)c2)ncc1C1CC1)C1CCC1 [Example 23, Cyclobutanecarboxylic acid {3-[5-cyclopropyl-2-(3-fluoro-phenylamino)-pyrimidin-4-ylamino]-propyl}-amide] | 87 | 81 | 81 | 87 | 74 | 67 | 77 | 40 | 86 | 37 | 93 | 96 | 47 | 24 | 77 | 22 | 99 | 89 | 77 | 69 | remaining activity at 10 µM [2, 11]: 67%; residual kinase activity PIM2 [2]: 74%; residual kinase activity ROCK 2 ([3]; 10 μM compound): 40%; residual kinase activity ROCK 2 ([3]; 1 μm compound): 77%; remaining activity at 10 µM [4, 12]: 37%; residual kinase activity Lck [4]: 86%; remaining activity at 10 µM [5, 13]: 96%; residual kinase activity PRAK [5]: 93%; remaining activity at 10 µM [6, 14]: 24%; residual kinase activity RSK1 [6]: 47%; remaining activity at 10 µM [7, 15]: 22%; residual kinase activity YES1 [7]: 77%; remaining activity at 10 µM [8, 16]: 89%; residual kinase activity PKC zeta [8]: 99%; remaining activity at 10 µM [9, 17]: 69%; residual kinase activity CSK [9]: 77%
3 | O=C(NCCCNc1nc(Nc2cccc(N3CCCC3=O)c2)ncc1C1CC1)c1cccs1 [Example 47, Thiophene-2-carboxylic acid (3-{5-cyclopropyl-2-[3-(2-oxo-pyrrolidin-1-yl)-phenylamino]-pyrimidin-4-ylamino}-propyl)-amide. Hydrochloride salt] | – | – | 83 | 69 | 101 | 93 | 85 | 48 | 105 | 69 | 70 | 76 | 45 | 10 | 94 | 74 | 80 | 78 | 77 | 71 | –
4 | O=C(NCCCNc1nc(Nc2cccnc2)ncc1C1CC1)c1cccs1 [Example 50, Thiophene-2-carboxylic acid {3-[5-cyclopropyl-2-(pyridin-3-ylamino)-pyrimidin-4-ylamino]-propyl}-amide] | – | – | 85 | 70 | 100 | 89 | 77 | 51 | 91 | 50 | 64 | 64 | 49 | 20 | 82 | 29 | 84 | 73 | 79 | 60 | –

Source: patent publication US20100056524A1, “Compound” (priority 2008, published 2010)
